Measurements: patent publication US8293773B2, “1, 2, 3-triazole derivatives as new cannabinoid-1 receptor antagonists” (National Tsing Hua University, priority 2008, dated 2012)

Key:
human CB1 receptor = biological target: T1, human CB1 receptor (Homo sapiens, UniProt P21554); test: competitive radioligand binding assay, displacement of [3H]CP55,940, CB1; conditions: for IC50: displacement of specific [3H]-CP55940 binding in HEK 293 cells stably transfected with human CB1 receptor
T1 construct: expressed in transfected cells; membrane-enriched fractions
Experimental: (§1) In addition, the affinity of test compounds of this invention toward CB1 and CB2 receptors was determined by competitive radioligand binding assays in vitro. This method differentiates the binding strength between compounds by their abilities in displacing a receptor-specific radioactive ligand. […] The readings of the radioactivity retained allow further analysis of receptor binding, and assist in predictions of the pharmacological activities of the test compounds.
(§2) In the assays, CB1 receptors are from human CB1 stably expressed cell lines, and CB2 receptors are from human CB2 stably expressed cell lines. For purification of membrane-enriched fractions, cells were scraped off from the culture dishes in ice-cold buffer A (50 mM Tris, 5 mM MgCl2, 2.5 mM EDTA, pH 7.4, 10% sucrose) with 1 mM PMSF. After sonication, the membrane-enriched fractions were centrifuged for 15 minutes at 2,000×g at 4° C. The supernatant was centrifuged again for 30 minutes at 43,000×g at 4° C. The final pellet was re-suspended in buffer A and stored at −80° C. The protein concentration of the purified membrane was determined by the Bradford method as described by the manual provided by Bio-Rad Laboratories, Inc., Hercules, Calif.
(§3) During the receptor binding experiments, 0.2˜8 μg of membrane fractions were incubated with 0.75 nM [^3H]CP55,940 and a test compound in the incubation buffer of 50 mM Tris-HCl, 5 mM MgCl2, 1 mM EDTA, 0.3% BSA, pH 7.4. The non-specific binding was determined by using 1 μM of CP55,940. The mixture was incubated for 1.5 hours at 30° C. in Multiscreen microplates (Millipore, Billerica, Mass.). At the completion of the incubation, the reaction was terminated by Manifold filtration and washed with ice-cold wash buffer (50 mM Tris, pH 7.4, 0.25% BSA) four times. The radioactivity bound to the filters was measured by Topcount (Perkin Elmer Inc.).

human CB2 receptor = biological target: T2, human CB2 receptor (Homo sapiens, UniProt P34972); test: competitive radioligand binding assay, displacement of [3H]CP55,940, CB2
T2 construct: expressed in transfected cells; membrane-enriched fractions
Experimental: as §1, §2, §3

[1] = Table 2, percent inhibition at 10 μM

T1 sequence (P21554 whole entry): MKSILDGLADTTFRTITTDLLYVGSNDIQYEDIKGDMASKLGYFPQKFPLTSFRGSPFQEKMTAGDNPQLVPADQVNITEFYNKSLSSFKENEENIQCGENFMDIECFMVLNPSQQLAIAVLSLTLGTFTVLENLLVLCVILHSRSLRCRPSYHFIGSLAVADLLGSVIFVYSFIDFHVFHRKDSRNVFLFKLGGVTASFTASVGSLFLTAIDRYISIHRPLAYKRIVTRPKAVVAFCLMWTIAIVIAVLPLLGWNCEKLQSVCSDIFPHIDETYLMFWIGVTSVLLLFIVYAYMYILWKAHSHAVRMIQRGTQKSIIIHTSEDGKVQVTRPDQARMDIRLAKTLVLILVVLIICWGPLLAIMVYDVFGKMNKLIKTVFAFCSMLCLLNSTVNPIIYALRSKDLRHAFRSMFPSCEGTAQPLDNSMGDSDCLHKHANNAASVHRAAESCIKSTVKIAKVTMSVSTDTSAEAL
T2 sequence (P34972 whole entry): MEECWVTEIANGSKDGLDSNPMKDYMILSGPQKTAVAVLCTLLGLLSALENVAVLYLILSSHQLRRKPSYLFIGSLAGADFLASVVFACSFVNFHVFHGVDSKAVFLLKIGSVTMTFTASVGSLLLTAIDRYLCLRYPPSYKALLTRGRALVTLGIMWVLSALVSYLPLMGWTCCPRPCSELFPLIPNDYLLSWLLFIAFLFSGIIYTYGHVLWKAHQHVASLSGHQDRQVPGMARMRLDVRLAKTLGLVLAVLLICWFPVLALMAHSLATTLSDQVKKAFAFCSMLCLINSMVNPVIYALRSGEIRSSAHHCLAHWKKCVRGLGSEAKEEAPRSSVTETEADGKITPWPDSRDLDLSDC

SMILES | inhibition at 10 µM (human CB1 receptor; [1]) [%] | IC50 (human CB1 receptor) [nM] | IC50 (human CB2 receptor; cells printed in μM) [µM] | IC50 (human CB2 receptor; human CB2 stably expressed cell line membranes) [µM] | CB1 Inhibition (%) (10 μM) (human CB1 receptor; Table 2, percent inhibition at 10 μM, 10 µM)
O=C(Cn1nc(-c2ccc(Cl)cc2Cl)c(-c2ccc(Cl)cc2Cl)n1)NN1CCCCC1 [Compound 121] | 70.3 |  |  |  | 
O=C(Cn1nc(-c2ccc(Cl)cc2Cl)c(-c2ccc(Cl)cc2Cl)n1)NCc1ccccc1 [Compound 122] | 99.3 | 66.9 ± 8.9 | > 10 |  | 
O=C(Cn1nc(-c2ccc(Cl)cc2Cl)c(-c2ccc(Cl)cc2Cl)n1)Oc1ccccc1 [Compound 124] | 14.3 |  |  |  | 
O=C(Cn1nc(-c2ccc(Cl)cc2)c(-c2ccc(Cl)cc2Cl)n1)N1CCCCC1 [Compound 129] | 76.5 | 587 ± 139 |  |  | 
O=C(Cn1nc(-c2ccc(Cl)cc2Cl)c(-c2ccc(Cl)cc2Cl)n1)N[C@H](CO)Cc1ccccc1 [Compound 132] | 88.2 | 295 ± 112 |  |  | 
C[C@H](NC(=O)Cn1nc(-c2ccc(Cl)cc2Cl)c(-c2ccc(Cl)cc2Cl)n1)C(O)(c1ccccc1)c1ccccc1 [Compound 133] | 75.7 | 760 ± 273 |  |  | 
O=C(Cn1nc(-c2ccc(Cl)cc2Cl)c(-c2ccc(Cl)cc2Cl)n1)N[C@@H](CO)[C@H](O)c1ccc([N+](=O)[O-])cc1 [Compound 135] | 60.1 |  |  |  | 
CSc1ccc([C@@H](O)[C@@H](CO)NC(=O)Cn2nc(-c3ccc(Cl)cc3Cl)c(-c3ccc(Cl)cc3Cl)n2)cc1 [Compound 136] | 66.3 |  |  |  | 
O=C(Cn1nc(-c2ccc(Cl)cc2Cl)c(-c2ccc(Cl)cc2Cl)n1)N[C@@H](CO)[C@H](O)c1ccccc1 [Compound 137] | 59.3 |  |  |  | 
COC[C@H](NC(=O)Cn1nc(-c2ccc(Cl)cc2)c(-c2ccc(Cl)cc2Cl)n1)[C@@H](O)c1ccccc1 [Compound 140] |  | 1050 ± 256 |  |  | 
O=C(Cn1nc(-c2ccc(Cl)cc2)c(-c2ccc(Cl)cc2Cl)n1)NN1CCCCC1 [Compound 142] | 76.1 | 1850 ± 1380 |  |  | 
CC(C)[C@H](NC(=O)Cn1nc(-c2ccc(Cl)cc2)c(-c2ccc(Cl)cc2Cl)n1)C(O)(c1ccccc1)c1ccccc1 [Compound 144] | 89.5 | 140 ± 63.1 |  |  | 
Cc1ccc(CNC(=O)Cn2nc(-c3ccc(Cl)cc3Cl)c(-c3ccc(Cl)cc3Cl)n2)cc1 [Compound 145] | 95 | 252 ± 75.1 |  |  | 
O=C(Cn1nc(-c2ccc(Cl)cc2Cl)c(-c2ccc(Cl)cc2Cl)n1)Nc1ccccc1 [Compound 147] | 99.5 | 251 ± 88.1 | > 10 |  | 
O=C(Cn1nc(-c2ccc(Cl)cc2)c(-c2ccc(Cl)cc2Cl)n1)NCc1ccc(Cl)cc1Cl [Compound 152] | 90.5 | 711 ± 175 |  |  | 
Cc1cccc(CNC(=O)Cn2nc(-c3ccc(Cl)cc3)c(-c3ccc(Cl)cc3Cl)n2)c1 [Compound 155] | 85 | 473 ± 300 |  |  | 
O=C(Cn1nc(-c2ccc(Cl)cc2)c(-c2ccc(Cl)cc2Cl)n1)NCc1ccc(F)cc1F [Compound 157] | 95.2 | 217 ± 86.6 |  |  | 
O=C(Cn1nc(-c2ccc(Cl)cc2)c(-c2ccc(Cl)cc2Cl)n1)NCc1ccccc1C(F)(F)F [Compound 158] | 92.5 | 302 ± 132 |  |  | 
O=C(Cn1nc(-c2ccc(Cl)cc2)c(-c2ccc(Cl)cc2Cl)n1)NCc1cccc(F)c1 [Compound 161] | 87.7 | 529 ± 144 |  |  | 
O=C(Cn1nc(-c2ccc(Cl)cc2)c(-c2ccc(Cl)cc2Cl)n1)NCc1ccc(F)cc1 [Compound 162] | 90.5 | 449 ± 67.9 | > 10 |  | 
O=C(Cn1nc(-c2ccc(Cl)cc2)c(-c2ccc(Cl)cc2Cl)n1)NCc1ccc(F)c(F)c1 [Compound 166] | 88.3 |  |  |  | 
O=C(Cn1nc(-c2ccc(Cl)cc2Cl)c(-c2ccc(Cl)cc2Cl)n1)NCc1ccc(F)cc1 [Compound 171] |  | 11.6 ± 3.4 | > 10 |  | 

The remaining lines, values ahead:

inhibition at 10 µM (human CB1 receptor; [1]) [%] | IC50 (human CB1 receptor) [nM] | IC50 (human CB2 receptor; cells printed in μM) [µM] | IC50 (human CB2 receptor; human CB2 stably expressed cell line membranes) [µM] | CB1 Inhibition (%) (10 μM) (human CB1 receptor; Table 2, percent inhibition at 10 μM, 10 µM) | SMILES
90.3 | 1170 ± 263 | > 10 |  |  | CCCCOC(=O)Cn1nc(-c2ccc(Cl)cc2Cl)c(-c2ccc(Cl)cc2Cl)n1 [Compound 111]
74.2 |  |  |  |  | O=C(Cn1nc(-c2ccc(Cl)cc2Cl)c(-c2ccc(Cl)cc2Cl)n1)NC1CCCCC1 [Compound 119]
93.7 |  |  | 5.9 ± 0.764 |  | O=C(Cn1nc(-c2ccc(Cl)cc2Cl)c(-c2ccc(Cl)cc2Cl)n1)N1CCCCC1 [Compound 120]
11.6 |  |  |  |  | O=C(Cn1nc(-c2ccccc2)c(-c2ccccc2)n1)NC1CCCCC1 [Compound 123]
 | 144 ± 110 | > 10 |  | 91.40 | O=C(Cn1nc(-c2ccc(Cl)cc2Cl)c(-c2ccc(Cl)cc2Cl)n1)NC1CCCCC1 [Compound 125]
102 | 86.8 ± 1 |  |  |  | C#CC1(NC(=O)Cn2nc(-c3ccc(Cl)cc3Cl)c(-c3ccc(Cl)cc3Cl)n2)CCCCC1 [Compound 126]
89.4 | 1240 ± 697 |  |  |  | O=C(Cn1nc(-c2ccc(Cl)cc2Cl)c(-c2ccc(Cl)cc2Cl)n1)N[C@H]1c2ccccc2C[C@H]1O [Compound 127]
13.6 |  |  |  |  | O=C(Cn1nc(-c2ccc(Cl)cc2Cl)c(-c2ccc(Cl)cc2Cl)n1)N[C@H]1c2ccccc2C[C@H]1OC(=O)Cn1nc(-c2ccc(Cl)cc2Cl)c(-c2ccc(Cl)cc2Cl)n1 [Compound 128]
48.6 |  |  |  |  | O=C(Cn1nc(-c2ccc(Cl)cc2)c(-c2ccc(Cl)cc2)n1)N1CCCCC1 [Compound 130]
84.2 | 71.9 ± 16.5 |  |  |  | O=C(Cn1nc(-c2ccc(Cl)cc2Cl)c(-c2ccc(Cl)cc2Cl)n1)N1CCOCC1 [Compound 131]
95.9 | 806 ± 346 |  |  |  | COC[C@H](NC(=O)Cn1nc(-c2ccc(Cl)cc2Cl)c(-c2ccc(Cl)cc2Cl)n1)[C@@H](O)c1ccccc1 [Compound 134]
 | 1700 ± 425 |  |  |  | O=C(Cn1nc(-c2ccc(Cl)cc2)c(-c2ccc(Cl)cc2Cl)n1)NC1CCCCC1 [Compound 138]
80 | 789 ± 202 |  |  |  | C[C@H](NC(=O)Cn1nc(-c2ccc(Cl)cc2)c(-c2ccc(Cl)cc2Cl)n1)C(O)(c1ccccc1)c1ccccc1 [Compound 143]
94.8 | 81.9 ± 44.2 | > 10 |  |  | COc1ccc(CNC(=O)Cn2nc(-c3ccc(Cl)cc3Cl)c(-c3ccc(Cl)cc3Cl)n2)cc1 [Compound 146]
94.5 | 592 ± 302 |  |  |  | Cc1ccccc1CNC(=O)Cn1nc(-c2ccc(Cl)cc2)c(-c2ccc(Cl)cc2Cl)n1 [Compound 148]
78.2 | 684 ± 428 |  |  |  | COc1ccc(CNC(=O)Cn2nc(-c3ccc(Cl)cc3)c(-c3ccc(Cl)cc3Cl)n2)cc1 [Compound 149]
91.4 | 704 ± 283 |  |  |  | O=C(Cn1nc(-c2ccc(Cl)cc2)c(-c2ccc(Cl)cc2Cl)n1)NCc1ccc(Cl)cc1 [Compound 150]
61.8 | 5970 ± 2600 |  |  |  | O=C(Cn1nc(-c2ccc(Cl)cc2)c(-c2ccc(Cl)cc2Cl)n1)NCc1cccc2c1OCO2 [Compound 151]
87 | 1060 ± 656 |  |  |  | O=C(Cn1nc(-c2ccc(Cl)cc2)c(-c2ccc(Cl)cc2Cl)n1)NCc1ccc(Cl)c(Cl)c1 [Compound 153]
95.2 | 772 ± 446 |  |  |  | CC(NC(=O)Cn1nc(-c2ccc(Cl)cc2)c(-c2ccc(Cl)cc2Cl)n1)c1ccccc1 (centres unmarked) [Compound 154]
69.5 |  |  |  |  | COc1cccc(CNC(=O)Cn2nc(-c3ccc(Cl)cc3)c(-c3ccc(Cl)cc3Cl)n2)c1 [Compound 156]
87.3 | 365 ± 160 |  |  |  | O=C(Cn1nc(-c2ccc(Cl)cc2)c(-c2ccc(Cl)cc2Cl)n1)NCc1ccccc1Cl [Compound 159]
88.2 | 262 ± 184 | > 10 |  |  | O=C(Cn1nc(-c2ccc(Cl)cc2)c(-c2ccc(Cl)cc2Cl)n1)NCc1ccccc1F [Compound 160]
76.6 | 2070 ± 186 |  |  |  | O=C(Cn1nc(-c2ccc(Cl)cc2)c(-c2ccc(Cl)cc2Cl)n1)NC1CCc2ccccc21 (centres unmarked) [Compound 163]
82.1 | 2830 ± 378 |  |  |  | COc1ccc(CNC(=O)Cn2nc(-c3ccc(Cl)cc3)c(-c3ccc(Cl)cc3Cl)n2)cc1OC [Compound 164]
89.8 | 152 ± 71 | > 10 |  |  | O=C(Cn1nc(-c2ccc(Cl)cc2)c(-c2ccc(Cl)cc2Cl)n1)NCc1cc(F)ccc1F [Compound 165]
92.1 |  |  |  |  | CC1CCC(NC(=O)Cn2nc(-c3ccc(Cl)cc3)c(-c3ccc(Cl)cc3Cl)n2)CC1 (centres unmarked) [Compound 167]
93.9 | 204 ± 78.1 | > 10 |  |  | O=C(Cn1nc(-c2ccc(Cl)cc2)c(-c2ccc(Cl)cc2Cl)n1)NCc1ccccc1 [Compound 168]
 | 25.7 ± 2.9 | > 10 |  |  | O=C(Cn1nc(-c2ccc(Cl)cc2Cl)c(-c2ccc(Cl)cc2Cl)n1)NCc1cccc(F)c1 [Compound 170]
 | 19.3 ± 3.5 |  |  |  | O=C(Cn1nc(-c2ccc(Cl)cc2Cl)c(-c2ccc(Cl)cc2Cl)n1)NCc1ccccc1F [Compound 173]
